Legend:
proteoglycans = settings: cited from earlier work
synovial MSCs [1] = test: In-vitro differentiation assay of MSCs (cartilage, bone, adipocytes); format: cell-based, human
Protocol: In-vitro differentiation assays were performed according to the method described in Colter D C. et al, Proc Natl Acad Sci USA, 2001, 98, pp. 7841 to 7845.
To form chondrogenic spheroids, 2.5×10^5 cells were transferred into 15 mL polypropylene tubes (BD Biosciences) and subjected to centrifugation at 450×g for 10 minutes. Then, the cell pellets were cultured in chondrogenic medium containing 1000 ng/mL rhBMP-2 (Infuse Bone Graft; Medtronic, TN, USA), 10 ng/mL […], and 100 nM dexamethasone (Sigma-Aldrich, MO, USA) for 14 days.
For calcification, cells were cultured in normal growth medium supplemented with 1 nM dexamethasone, 20 mM β-glycerophosphate, and 50 μg/mL ascorbic acid-2-phosphate (Sigma-Aldrich) for 21 days. Calcified nodule formation was visualized by alizarin red staining (Sigma-Aldrich).
For adipogenesis, the cells were cultured for 21 days in MEM-alpha supplemented with 10% FBS, 100 nM dexamethasone (Sigma-Aldrich), 0.5 mM IBMX (isobutyl-1-methylxanthine; Sigma-Aldrich), and 50 μM indomethacin (Wako, Tokyo, Japan). The adipogenic cultures were immobilized and stained with Oil Red O solution (Sigma-Aldrich).

[2] = tested on: MSCs positive for CD73, CD90, CD105, CD44; test: Expression analysis of MSC surface antigens (flow cytometry); format: cell-based, human; settings: cultured 2 weeks in the presence of rh Activin A; FIG. 6A
Protocol: Cells were isolated by treatment with TrypLE (Thermo Fisher Scientific, MA, USA) for 5 minutes and stained with antibodies as described in Tsuji K. et al, Cell Transplant. 2017, 26(6), pp. 1089 to 1102. The surface antigen positive cell fraction was then measured using FACS Verse Flow Cytometer (BD Biosciences). Note that fluorochrome-conjugated antibodies for the analysis of cell surface markers (CD73, CD90, CD105, and CD44) were purchased from BD Biosciences (NJ).
To evaluate the effect of activin on the stemness of MSCs, they were cultured for 2 weeks in the presence of rh Activin A, and changes in the expression level of MSC surface antigens were examined by flow cytometric analysis.

p44/42 MAPK (Erk1/2) = test: Western blotting, phosphorylation of p44/42 MAPK (Erk1/2) in synovial MSCs; format: cell-based, human; settings: FIG. 5F
Protocol: (§1) Synovial MSCs were seeded in 6 cm dishes to reach a cell count of 2×10^5, and cultured in normal growth medium for 1 day. The medium was replaced with fresh medium with reduced amount of FBS (MEM-alpha, 0.5% FBS and antibiotics) and cultured for one more day. The cells were treated with rh Activin A and/or PDGF-AA (amount 3 times the ED50) for up to 30 minutes. Then, those cells were lysed with cell lysis buffer (#9803S; Cell Signaling Technology, MA) to prepare total cell lysate.
(§2) Western blotting was performed as described in Uomizu, M. et al, J Med Dent Sci. vol. 65, pp. 73 to 82. The antibodies used were purchased from Cell Signaling Technology (phospho-p44/42 (#4370), p44/42 (#9102), phospho-Akt (#9271), and Akt (#9272)).

synovial MSCs [3] = test: Proliferation assay of synovial MSCs with recombinant protein (MTT assay); format: cell-based, human; settings: rh Activin A at ED50x10 and ED50x100 in 10% FBS and 0.5% FBS medium, days 0-7; FIGS. 5C and D
Protocol: Primary human synovial cells were isolated from the synovial tissues obtained from patients who underwent total knee arthroplasty (TKA), as described in Sekiya I. et al, Clin Orthop Relat Res, 2015, 473(7), pp. 2316 to 2326. That is, first, 0.5 to 1 mg of synovium obtained by incising the suprapatellar bursa was subjected to collagenase D treatment (Sigma, MO, USA, 3 hours at 37° C.) to disperse nucleated cells. Debris was removed by passing the cell dispersion through a 70 μm nylon mesh. Nucleated cells were seeded in a 15 cm dish at 5.7×10^2 cells/cm^2 and maintained and cultured in MEM-alpha medium supplemented with 10% FBS and antibiotics (Gibco, MA, USA) for 14 days. The cells were then separated from the dish in TripLE solution (Gibco) and seeded twice more in a new dish to obtain a sufficient cell count to be used in the experiments. Note that in all experiments, cells within 6 passages were used.
To evaluate the pro-proliferative activity of recombinant proteins (IL6, IL8, IL10, and Activin A), MTT assays were performed (see FIGS. 3C and 5C-E). Synovial MSCs were seeded to 1×10^3 cells/well in 96-well plates and cultured in 0.2 mL of normal growth medium 1 day before being subjected to recombinant protein treatment. On the following day, the medium was replaced with a fresh one (normal growth medium or medium with a reduced FBS concentration of 0.5% and recombinant protein added (10 times the concentration of ED50 or 100 times the concentration of ED50)). MTT assays were performed at days 0, 1, 3, 5, and 7 according to the method described in Denizot F. et al., J Immunol Methods, 1986, 89(2), pp. 271 to 277.
In addition, the present inventors tried to clarify the molecular mechanism of MSC proliferative activity by Activin A. It has been reported that the ERK and PI3K signal transduction pathways are activated for MSC proliferation (see Uomizu, M. et al, J Med Dent Sci., 2018, vol. 65, pp. 73 to 82). With the above in mind, Activin A (rh Activin A) was applied to synovial MSCs in the presence of PI3K-PKB/Akt and Erk1/Erk2, a specific inhibitor for each of these signal transduction pathways, and the cell count was measured by MTT assay.

Akt = test: Western blotting, phosphorylation of Akt in synovial MSCs; format: cell-based, human; settings: FIG. 5F
Protocol: as §1, §2

[4] = tested on: rat model of total articular cartilage loss; test: Full thickness articular cartilage defect model; format: in vivo; settings: 4 weeks after the defect, FIG. 8
Protocol: Next, in order to verify the regeneration of damaged articular cartilage and the suppression of degenerative degeneration, a model of full thickness articular cartilage defect was prepared to examine the effects of rh Activin A administration. Specifically, a 1.4 mmφ total articular cartilage loss was prepared in the femoral intercondylar region using an airtome, and 180 ng of Activin A (rh Activin A) was injected intra-articularly 1 week later.

[5] = Activin A alone, MSCs serum-starved 24 hours, within 30 minutes
[6] = Activin A together with PDGF-AA

Activin A: homodimer of two inhibin βA chains; recombinant human protein purchased from R&D Systems
expression of proteoglycans (proteoglycans): promotes the expression of proteoglycans | production of cartilage matrix (synovial MSCs [1]; added to chondrogenic differentiation medium, pellet culture 2 weeks, FIG. 6C): no significant promotive effect | differentiation induction toward chondrocytic, osteoblastic and adipocytic cells (synovial MSCs [1]; after 2 weeks of culture in the presence of Activin A, vs control, FIG. 6B): no significant changes | cell population positive for MSC-related antigens (CD73, CD90, CD105, CD44) [2]: no change | phosphorylation of Erk1/2 (p44/42 MAPK (Erk1/2); [5]): not detected | intracellular Erk phosphorylation (p44/42 MAPK (Erk1/2); [6]): no enhancement | proliferation of MSCs (MTT assay) (synovial MSCs [3]): significantly activated | phosphorylation of Akt (Akt; [5]): not detected | phosphorylation of Akt by PDGF (Akt; [6]): enhanced | degenerative degeneration of articular cartilage around the defect site ([4]; 180 ng intra-articular, safranin O): significantly suppressed | chondrogenic differentiation of the formed tissue [4]: no significant promotion effect | formation of fibrocartilage-like tissue in the articular cartilage defect site ([4]; intra-articular 1 week after defect (rh Activin A 180 ng/knee, rrPDGF-AA 900 ng/knee), vs PBS): promote the formation of fibrocartilage-like tissue

— US20220160779A1, “COMPOSITION FOR PROMOTING CARTILAGE TISSUE REGENERATION” (National University Corporation Tokyo Medical and Dental …, priority 2019, published 2022)
